row,Structure (SMILES),melting point
1,"CC(=O)NC[C@H]1CN(c2ccc(N3Cc4cnn(CC5CC5)c4C3)c(F)c2)C(=O)O1 (single isomer, unassigned) [Compound 73]",234 to 236 °C
2,"CC(=O)NC[C@H]1CN(c2ccc(N3Cc4ccccc4C3)c(F)c2)C(=O)O1 [Compound 1, N-[[(5S)-3-[4-(1,3-Dihydro-2H-isoindol-2-yl)-3-fluorophenyl]-2-oxo-5-oxazolidinyl]methyl]acetamide]",240 to 242 °C
3,"O=C1O[C@@H](CO)CN1c1ccc(N2Cc3cccnc3C2)c(F)c1 [Compound 2, (5R)-3-[4-(5,7-Dihydro-6H-pyrrolo[3,4-b]pyridin-6-yl)-3-fluorophenyl]-5-(hydroxymethyl)-2-oxazolidinone]",208 to 212 °C (dec.)
4,CC(=O)NC[C@H]1CN(c2ccc(-n3cc4cccnc4c3)c(F)c2)C(=O)O1 [Compound 4],220 to 225 °C (dec.)
5,CC(=O)NC[C@@H]1CN(c2ccc(-n3cc4cccnc4c3)c(F)c2)C(=O)O1 [Compound 6],181 to 185 °C (dec.)
6,O=C1O[C@@H](COc2ccon2)CN1c1ccc(N2Cc3cccnc3C2)c(F)c1 [Compound 7],182 to 185 °C
7,O=C1O[C@@H](COc2ccon2)CN1c1ccc(-n2cc3cccnc3c2)c(F)c1 [Compound 8],133 to 135 °C
8,O=C1O[C@@H](COc2cnccn2)CN1c1ccc(N2Cc3cccnc3C2)c(F)c1 [Compound 9],225 to 230 °C
9,O=C1O[C@@H](COc2cnccn2)CN1c1ccc(-n2cc3cccnc3c2)c(F)c1 [Compound 10],192 to 194 °C
10,O=C1O[C@@H](COc2cnsn2)CN1c1ccc(N2Cc3cccnc3C2)c(F)c1 [Compound 11],185 to 187 °C
11,O=C1O[C@@H](COc2cnsn2)CN1c1ccc(-n2cc3cccnc3c2)c(F)c1 [Compound 12],185 to 188 °C
12,CCC(=O)NC[C@H]1CN(c2ccc(N3Cc4cccnc4C3)c(F)c2)C(=O)O1 [Compound 13],110 to 112 °C
13,O=C(NC[C@H]1CN(c2ccc(N3Cc4cccnc4C3)c(F)c2)C(=O)O1)C1CC1 [Compound 15],235 to 240 °C
14,CS(=O)(=O)NC[C@H]1CN(c2ccc(N3Cc4cccnc4C3)c(F)c2)C(=O)O1 [Compound 20],172 to 176 °C
15,CS/C(=N\C#N)NC[C@H]1CN(c2ccc(N3Cc4cccnc4C3)c(F)c2)C(=O)O1 [Compound 22],204 to 207 °C
16,N/C(=N\[N+](=O)[O-])NC[C@H]1CN(c2ccc(N3Cc4cccnc4C3)c(F)c2)C(=O)O1 [Compound 24],202 to 206 °C
17,"CC(=O)NC[C@H]1CN(c2ccc(-n3cc4cc[n+]([O-])cc4c3)c(F)c2)C(=O)O1 [Compound 27, N-[[(5S)-3-[3-Fluoro-4-(5-oxido-2H-pyrrolo[3,4-c]pyridin-2-yl)phenyl]-2-oxo-5-oxazolidinyl]methyl]acetamide]",219 to 225 °C (dec.)
18,CC(=O)NC[C@H]1CN(c2ccc(-n3cc4ccncc4c3)c(F)c2)C(=O)O1 [Compound 28],219 to 225 °C (dec.)
19,CC(=O)NC[C@H]1CN(c2ccc(N3Cc4cnc(C)nc4C3)c(F)c2)C(=O)O1 [Compound 35],234 °C (dec.)
20,CC(=O)NC[C@H]1CN(c2ccc(N3Cc4cncnc4C3)c(F)c2)C(=O)O1 [Compound 36],230 to 232 °C
21,CC(=O)NC[C@H]1CN(c2ccc(-n3cc4cncnc4c3)c(F)c2)C(=O)O1 [Compound 37],164 to 166 °C

row,Structure (SMILES),melting point
1,CC(=O)NC[C@H]1CN(c2ccc(N3Cc4cnc(-c5cnccn5)nc4C3)c(F)c2)C(=O)O1 [Compound 38],212 to 214 °C
2,CC(=O)NC[C@H]1CN(c2ccc(N3Cc4cnc(-c5ccncc5)nc4C3)c(F)c2)C(=O)O1 [Compound 41],245 to 250 °C (dec.)
3,CC(=O)NC[C@H]1CN(c2ccc(N3Cc4cnc(-c5ccccn5)nc4C3)c(F)c2)C(=O)O1 [Compound 42],216 to 220 °C
4,CC(=O)NC[C@H]1CN(c2ccc(N3Cc4cnc(-c5cccnc5)nc4C3)c(F)c2)C(=O)O1 [Compound 43],265 to 270 °C (dec.)
5,CC(=O)NC[C@H]1CN(c2ccc(N3Cc4c[nH]nc4C3)c(F)c2)C(=O)O1 [Compound 44],244 to 247 °C (dec.)
6,CCCn1ncc2c1CN(c1ccc(N3C[C@H](CNC(C)=O)OC3=O)cc1F)C2 [Compound 45],204 to 208 °C
7,"CC(=O)NC[C@H]1CN(c2ccc(N3Cc4ccccc4C3=O)c(F)c2)C(=O)O1 [Compound 46, N-[[(5S)-3-[4-(1,3-dihydro-1-oxo-2H-isoindol-2-yl)-3-fluorophenyl]-2-oxo-5-oxazolidinyl]methyl]acetamide]",211 to 214 °C
8,CC(=O)NC[C@H]1CN(c2ccc(N3C(=O)c4ccccc4C3=O)c(F)c2)C(=O)O1 [Compound 47],240 to 242 °C
9,CC(=O)NC[C@H]1CN(c2ccc(N3Cc4cccnc4C3=O)c(F)c2)C(=O)O1 [Compound 48],230 to 232 °C
10,CC(=O)NC[C@H]1CN(c2ccc(N3Cc4ncccc4C3=O)c(F)c2)C(=O)O1 [Compound 49],207 to 209 °C
11,CC(=O)NC[C@H]1CN(c2ccc(N3Cc4cnn(C)c4C3)c(F)c2)C(=O)O1 [Compound 50],211 to 213 °C
12,CC(=O)NC[C@H]1CN(c2ccc(N3Cc4cn(-c5ccccn5)nc4C3)c(F)c2)C(=O)O1 [Compound 51],259 to 261 °C (dec.)
13,CC(=O)NC[C@H]1CN(c2ccc(N3Cc4cnn(C(C)(C)C)c4C3)c(F)c2)C(=O)O1 [Compound 52],155 to 157 °C
14,CC(=O)NC[C@H]1CN(c2ccc(N3Cc4cnn(CCO)c4C3)c(F)c2)C(=O)O1 [Compound 53],163 to 165 °C
15,"CC(=O)NC[C@H]1CN(c2ccc(N3Cc4cn(CCO)nc4C3)c(F)c2)C(=O)O1 [Compound 65, N-[[(5S)-3-[4-[2,6-dihydro-2-(2-hydroxyethyl)pyrrolo[3,4-c]pyrazol-5(4H)-yl]-3-fluorophenyl]-2-oxo-5-oxazolidinyl]methyl]acetamide]",232 to 242 °C (dec.)
16,CC(=O)NC[C@H]1CN(c2ccc(N3Cc4cn(C[C@H](O)CO)nc4C3)c(F)c2)C(=O)O1 [Compound 66],188 to 191 °C
17,CC(=O)NC[C@H]1CN(c2ccc(N3Cc4cn(CCCO)nc4C3)c(F)c2)C(=O)O1 [Compound 68],171 to 173 °C
18,CC(=O)NC[C@H]1CN(c2ccc(N3Cc4cn(C[C@@H](O)CO)nc4C3)c(F)c2)C(=O)O1 [Compound 69],184 to 188 °C
19,CC(=O)NC[C@H]1CN(c2ccc(N3Cc4cn(CC(F)(F)F)nc4C3)c(F)c2)C(=O)O1 [Compound 70],170 to 172 °C
20,CNC(=S)n1cc2c(n1)CN(c1ccc(N3C[C@H](CNC(C)=O)OC3=O)cc1F)C2 [Compound 87],246 to 249 °C
21,[N-]=[N+]=NC[C@H]1CN(c2ccc(N3Cc4cccnc4C3)c(F)c2)C(=O)O1 [Example 7],175 to 180 °C (dec.)
